Data taken from patent US20250368666A1, “INDAZOLE COMPOUNDS” (TYRA BIOSCIENCES, INC., priority 2022, published 2025).
pIC50: −log10 of the molar value.

Experiments:
[1] = test system: HuH7 cell line (FGF19 amplification); test: Cancer cell line cell viability assay (Cell Titer-Glo), 120 hr; type: cell-based; settings: Homo sapiens, Huh-7
Description: Experimental Purpose: To detect the change of intracellular ATP by Cell Titer-Glo® and to evaluate the inhibitory effect of the compounds on cancer cell lines by determining the in vitro IC50 value of the compounds.
Cell Titer-Glo® 2.0 Luminescent cell viability assay reagent was purchased from Promega (Madison, WI). KG-1, KATO-III, and MDA-MB-453 cell lines were purchased from American Type Culture Collection (Manassas, VA). RT112/84 cell line was purchased from Millipore-Sigma (St. Louis, MO). HuH7 cells were purchased from Seikisui Xenotech (Kansas City, KS). RT112/84 and MDA-MB-453 cells were cultured in RPMI1640 media supplemented with 10% fetal bovine serum. KG-1 and KATO-III cell lines were cultured in IMDM media supplemented with 20% FBS. HuH7 cells were cultured in IMDM media supplemented with 10% FBS. Cultures were maintained at 37° C. in a humidified atmosphere of 5% CO2 and 95% air.
Cell Viability Assay Procedure: Cells were plated in 96-well clear bottom/white plates (Corning #3903) at a range of densities depending on the optimal assay window (5,000-20,000 cells/well in […] of media), incubated overnight. The next day, test compound DMSO stock solutions were made at 10 mM and […] final concentration. Compounds were then added to cells in a 9-dose, 4-fold dilution series starting at 3 μM with an HP 300e Digital Dispenser (each dose was applied in triplicate). DMSO was backfilled to each well up to 301 nL total volume of test compound+DMSO, and a total of 301 nL DMSO was added to a control/no test compound well in triplicate. The cells in cell culture plates were incubated with the compounds at 37° C. and 5% CO2 for 72 hours-120 hours depending on the cell line. Then 50 μl of Cell Titer Glo 2.0 reagent was added to each well of the cell culture plates. The contents were covered from light and mixed on an orbital shaker at room temperature for minimum of 10 min. Luminescence was recorded by a Clariostar Plus Microplate Reader (BMG Labtech, Cary, NC). Cells were assessed as a percentage of DMSO only treated control cells. Curves were plotted and IC50 values were calculated using the GraphPad Prism 9 program based on a sigmoidal dose-response equation (log (inhibitor) vs. response—Variable slope, 4-parameter).

FGFR4 = biological target: T1, FGFR4 (Homo sapiens, UniProt P22455); test: Kinase binding assay (kinase-tagged T7 phage, affinity beads, qPCR), Kd; settings: read-out: FGFR4 (Kd nM)
T1 construct: made in house; host or cells: E. coli (BL21-derived), T7 phage
T1 sequence (P22455 22-802): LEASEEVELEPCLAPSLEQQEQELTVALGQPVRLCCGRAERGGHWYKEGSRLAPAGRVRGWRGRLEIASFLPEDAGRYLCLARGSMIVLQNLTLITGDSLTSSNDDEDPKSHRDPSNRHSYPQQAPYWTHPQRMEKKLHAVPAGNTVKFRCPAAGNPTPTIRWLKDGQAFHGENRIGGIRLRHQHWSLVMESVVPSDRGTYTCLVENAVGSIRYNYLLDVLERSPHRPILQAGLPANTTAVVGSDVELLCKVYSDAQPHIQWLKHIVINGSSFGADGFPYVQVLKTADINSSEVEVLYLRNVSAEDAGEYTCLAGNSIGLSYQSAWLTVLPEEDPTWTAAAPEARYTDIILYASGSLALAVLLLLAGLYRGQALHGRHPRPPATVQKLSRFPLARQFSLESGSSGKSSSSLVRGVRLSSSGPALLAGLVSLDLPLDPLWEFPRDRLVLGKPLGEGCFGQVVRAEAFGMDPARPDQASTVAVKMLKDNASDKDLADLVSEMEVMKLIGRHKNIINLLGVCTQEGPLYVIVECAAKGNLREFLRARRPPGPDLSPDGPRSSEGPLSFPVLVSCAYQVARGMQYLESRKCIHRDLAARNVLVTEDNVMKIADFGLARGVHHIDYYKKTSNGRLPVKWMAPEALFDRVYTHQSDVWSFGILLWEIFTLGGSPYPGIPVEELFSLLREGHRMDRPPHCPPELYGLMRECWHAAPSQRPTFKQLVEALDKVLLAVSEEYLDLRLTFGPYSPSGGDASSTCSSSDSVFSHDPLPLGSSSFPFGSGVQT
In short: (§1)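 Competition binding; kinase-tagged T7 phage lysate vs immobilised biotinylated ligand on streptavidin beads, 0.9% DMSO final. 11-pt 3-fold dilutions, 3 DMSO controls. qPCR of eluted kinase; Kd by Hill fit, slope −1.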

FGFR2 = biological target: T2, FGFR2 (Homo sapiens, UniProt P21802); test: as above; settings: read-out: FGFR2 (Kd nM)
T2 construct: made in house; host or cells: E. coli (BL21-derived), T7 phage
T2 sequence (P21802 22-821): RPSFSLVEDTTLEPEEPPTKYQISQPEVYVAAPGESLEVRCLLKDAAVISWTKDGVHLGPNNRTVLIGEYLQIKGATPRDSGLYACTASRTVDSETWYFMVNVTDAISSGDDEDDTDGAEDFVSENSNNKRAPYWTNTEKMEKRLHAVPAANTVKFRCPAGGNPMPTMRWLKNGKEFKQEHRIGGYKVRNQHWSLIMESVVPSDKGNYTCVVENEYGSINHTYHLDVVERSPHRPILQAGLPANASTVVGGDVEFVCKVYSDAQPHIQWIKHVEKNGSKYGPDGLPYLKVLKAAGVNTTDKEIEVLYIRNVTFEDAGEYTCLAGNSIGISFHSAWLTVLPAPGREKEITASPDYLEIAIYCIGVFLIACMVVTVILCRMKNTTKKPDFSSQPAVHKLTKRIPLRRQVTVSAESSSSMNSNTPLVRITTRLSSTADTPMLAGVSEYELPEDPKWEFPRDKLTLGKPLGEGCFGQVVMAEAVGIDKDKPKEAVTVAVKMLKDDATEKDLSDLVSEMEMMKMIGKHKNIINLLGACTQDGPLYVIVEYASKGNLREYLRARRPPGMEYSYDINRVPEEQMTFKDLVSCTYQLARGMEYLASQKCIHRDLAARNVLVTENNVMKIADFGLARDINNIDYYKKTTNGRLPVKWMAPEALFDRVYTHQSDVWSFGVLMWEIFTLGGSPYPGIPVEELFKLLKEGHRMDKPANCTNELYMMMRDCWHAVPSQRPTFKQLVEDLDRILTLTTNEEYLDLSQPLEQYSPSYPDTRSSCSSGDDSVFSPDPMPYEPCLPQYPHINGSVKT
In short: as §1

FGFR3 = biological target: T3, FGFR3 (Homo sapiens, UniProt P22607); test: as above; settings: read-out: FGFR3 (Kd nM)
T3 construct: made in house; host or cells: E. coli (BL21-derived), T7 phage
T3 sequence (P22607 23-806): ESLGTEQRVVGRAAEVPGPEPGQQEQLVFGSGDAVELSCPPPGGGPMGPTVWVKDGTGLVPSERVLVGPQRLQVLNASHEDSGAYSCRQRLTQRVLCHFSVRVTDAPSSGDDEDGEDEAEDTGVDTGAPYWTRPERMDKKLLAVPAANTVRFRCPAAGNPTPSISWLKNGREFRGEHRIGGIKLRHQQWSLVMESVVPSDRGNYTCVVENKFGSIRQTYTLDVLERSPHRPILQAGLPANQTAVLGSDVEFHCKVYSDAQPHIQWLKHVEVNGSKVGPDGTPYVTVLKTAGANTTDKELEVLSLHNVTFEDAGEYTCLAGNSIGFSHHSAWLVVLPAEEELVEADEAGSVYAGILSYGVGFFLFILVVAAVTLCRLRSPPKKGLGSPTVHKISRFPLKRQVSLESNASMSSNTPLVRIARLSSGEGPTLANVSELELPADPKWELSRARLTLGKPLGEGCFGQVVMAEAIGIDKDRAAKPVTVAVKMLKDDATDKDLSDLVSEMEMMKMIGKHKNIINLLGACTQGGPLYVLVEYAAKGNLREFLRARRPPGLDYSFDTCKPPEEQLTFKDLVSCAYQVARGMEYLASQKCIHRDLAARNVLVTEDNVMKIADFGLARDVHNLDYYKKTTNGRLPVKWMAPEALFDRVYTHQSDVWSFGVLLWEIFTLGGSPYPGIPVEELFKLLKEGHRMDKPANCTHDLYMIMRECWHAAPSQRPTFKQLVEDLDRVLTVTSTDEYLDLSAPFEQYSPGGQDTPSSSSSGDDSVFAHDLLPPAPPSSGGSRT
In short: as §1

FGFR1 = biological target: T4, FGFR1 (Homo sapiens, UniProt P11362); test: as above; settings: read-out: FGFR1 (Kd nM)
T4 construct: made in house; host or cells: E. coli (BL21-derived), T7 phage
T4 sequence (P11362 22-822): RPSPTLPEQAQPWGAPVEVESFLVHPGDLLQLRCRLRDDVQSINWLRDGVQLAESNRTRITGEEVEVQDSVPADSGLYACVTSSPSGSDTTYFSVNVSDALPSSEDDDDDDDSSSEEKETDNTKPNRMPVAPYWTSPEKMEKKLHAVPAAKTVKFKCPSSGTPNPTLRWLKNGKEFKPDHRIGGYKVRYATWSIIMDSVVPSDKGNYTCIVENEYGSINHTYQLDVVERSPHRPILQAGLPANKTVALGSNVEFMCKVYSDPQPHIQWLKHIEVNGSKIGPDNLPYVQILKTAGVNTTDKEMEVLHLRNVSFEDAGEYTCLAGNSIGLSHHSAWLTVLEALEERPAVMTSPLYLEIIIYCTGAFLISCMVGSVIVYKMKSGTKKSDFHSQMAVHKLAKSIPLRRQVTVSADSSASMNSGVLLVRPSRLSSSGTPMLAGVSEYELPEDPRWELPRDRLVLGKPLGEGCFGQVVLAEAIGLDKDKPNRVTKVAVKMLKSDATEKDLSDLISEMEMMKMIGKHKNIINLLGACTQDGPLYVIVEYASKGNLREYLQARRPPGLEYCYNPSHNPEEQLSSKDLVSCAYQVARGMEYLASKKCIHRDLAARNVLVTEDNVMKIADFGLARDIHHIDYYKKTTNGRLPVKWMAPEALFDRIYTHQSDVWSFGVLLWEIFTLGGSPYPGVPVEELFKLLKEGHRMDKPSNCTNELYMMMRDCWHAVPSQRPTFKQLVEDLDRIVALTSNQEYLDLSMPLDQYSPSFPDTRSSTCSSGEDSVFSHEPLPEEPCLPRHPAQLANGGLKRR
In short: as §1

FGFR3 (V555M) = biological target: T5, FGFR3 (V555M) (Homo sapiens, UniProt P22607, V555M); test: as above; settings: V555M mutant; read-out: FGFR3 (V555M) (Kd nM)
T5 construct: made in house; host or cells: E. coli (BL21-derived), T7 phage
T5 sequence (P22607 23-806 V555M): as the sequence (P22607 23-806) above, with V533M counted along it
In short: as §1

[2] = test system: KG-1 cell line (FGFR 1-fusion); test: Cancer cell line cell viability assay (Cell Titer-Glo), 72 hr; type: cell-based; settings: Homo sapiens, KG-1, KG-1 cell line (FGFR1-fusion)
In short: (§2)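 Following overnight attachment, each line receives compound in triplicate across nine 4-fold dilutions starting at 3 μM, with DMSO backfill for equal solvent. Luminescence after Cell Titer-Glo 2.0 addition gives percent viability versus DMSO control, fitted by 4-parameter logistic for IC50.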

[3] = test system: KATO-III cell line (FGFR2 amplification); test: as above; type: cell-based; settings: Homo sapiens, KATO III
In short: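 Intracellular ATP was measured by Cell Titer-Glo 2.0 luminescence after cells were incubated with compound dilutions (top 3 μM, 4-fold, 9 doses). Values were expressed relative to DMSO-treated cells and IC50 was calculated from a variable-slope dose-response curve.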

[4] = test system: RT112/84 cell line (FGFR3-fusion); test: as above; type: cell-based; settings: Homo sapiens, RT112/84, RT112/84 cell line (FGFR3-fusion)
In short: as §2

Row | SMILES | pIC50 [1] | Kd (FGFR4) | Kd (FGFR2) | Kd (FGFR3) | Kd (FGFR1) | Kd (FGFR3 (V555M)) | pIC50 [2] | pIC50 [3] | pIC50 [4]
1 | Cc1ncc(Cl)c([C@@H](C)Oc2ccc3[nH]nc(-c4cnc(N5CC(C)(OC6CCC6)C5)c(C#N)c4)c3c2)c1Cl [Example 46, (R)-2-(3-Cyclobutoxy-3-methylazetidin-1-yl)-5-(5-(1-(3,5-dichloro-2-methyl-pyridin-4-yl)ethoxy)-1H-indazol-3-yl)nicotinonitrile] | < 6.00 | 1 to 50 nM | > 1000 nM | 300 to 1000 nM | > 1000 nM | 50 to 300 nM | – | – | –
2 | C[C@@H](Oc1cc2c(-c3cnc(N4CC(C)(N5CCOCC5)C4)c(C#N)c3)n[nH]c2cc1F)c1c(Cl)cncc1Cl [Example 124, (R)-5-(5-(1-(3,5-dichloropyridin-4-yl)ethoxy)-6-fluoro-1H-indazol-3-yl)-2-(3-methyl-3-morpholinoazetidin-1-yl)nicotinonitrile] | 6.70 to 7.30 | 1 to 50 nM | 50 to 300 nM | 1 to 50 nM | 50 to 300 nM | 1 to 50 nM | – | – | –
3 | C[C@@H](Oc1cc2c(-c3cnc(N4CC(C)(NCCO)C4)c(C#N)c3)n[nH]c2cc1F)c1c(Cl)cncc1Cl [Example 129, (R)-5-(5-(1-(3,5-dichloropyridin-4-yl)ethoxy)-6-fluoro-1H-indazol-3-yl)-2-(3-((2-hydroxyethyl)amino)-3-methylazetidin-1-yl)nicotinonitrile] | 6.70 to 7.30 | – | – | – | – | – | 6.00 to 6.70 | 6.00 to 6.70 | 6.70 to 7.30
4 | C[C@@H](Oc1cc2c(-c3cnc(N4CC(C)(N5CCC5)C4)c(C#N)c3)n[nH]c2cc1F)c1c(Cl)cncc1Cl [Example 136, (R)-5-(5-(1-(3,5-dichloropyridin-4-yl)ethoxy)-6-fluoro-1H-indazol-3-yl)-2-(3′-methyl-[1,3′-biazetidin]-1′-yl)nicotinonitrile] | 6.70 to 7.30 | 1 to 50 nM | 1 to 50 nM | 1 to 50 nM | 1 to 50 nM | 1 to 50 nM | – | – | –
5 | C[C@@H](Oc1cc2c(-c3cnc(N4CC(C)(CN5CCOCC5)C4)c(C#N)c3)n[nH]c2cc1F)c1c(Cl)cncc1Cl [Example 137, (R)-5-(5-(1-(3,5-dichloropyridin-4-yl)ethoxy)-6-fluoro-1H-indazol-3-yl)-2-(3-methyl-3-(morpholinomethyl)aze-tidin-1-yl)nicotinonitrile] | 6.70 to 7.30 | 1 to 50 nM | 50 to 300 nM | 1 to 50 nM | 50 to 300 nM | 1 to 50 nM | – | – | –
6 | COc1cc2[nH]nc(-c3cnc(N4CC(C)(NC(C)C)C4)c(C#N)c3)c2cc1O[C@@H](C)c1c(Cl)cncc1Cl [Example 330, (S)-5-(5-(1-(3,5-dichloropyridin-4-yl)ethoxy)-6-methoxy-1H-indazol-3-yl)-2-(3-(isopropylamino)-3-methylazetidin-1-yl)nicotinonitrile] | 6.00 to 6.70 | 1 to 50 nM | 300 to 1000 nM | 50 to 300 nM | 300 to 1000 nM | 50 to 300 nM | – | – | –
7 | COc1cc2[nH]nc(-c3cnc(N4CC(C)(NCC(C)(C)O)C4)c(C#N)c3)c2cc1O[C@@H](C)c1c(Cl)cncc1Cl [Example 331, (S)-5-(5-(1-(3,5-dichloropyridin-4-yl)ethoxy)-6-methoxy-1H-indazol-3-yl)-2-(3-((2-hydroxy-2-methylpro-pyl)amino)-3-methylazetidin-1-yl)nicotinonitrile] | 6.00 to 6.70 | 1 to 50 nM | 300 to 1000 nM | 50 to 300 nM | 300 to 1000 nM | 50 to 300 nM | – | – | –
8 | COc1cc2[nH]nc(-c3cnc(N4CC(C)(CS(C)(=O)=O)C4)c(C#N)c3)c2cc1O[C@@H](C)c1c(Cl)cncc1Cl [Example 332, (S)-5-(5-(1-(3,5-dichloropyridin-4-yl)ethoxy)-6-methoxy-1H-indazol-3-yl)-2-(3-methyl-3-((methyl-sulfonyl)meth-yl)azetidin-1-yl)nicotinonitrile] | 6.00 to 6.70 | 1 to 50 nM | > 1000 nM | 300 to 1000 nM | > 1000 nM | 300 to 1000 nM | – | – | –
9 | COc1cc2[nH]nc(-c3cnc(N4CC(C)(NCC5CC5)C4)c(C#N)c3)c2cc1O[C@@H](C)c1c(Cl)cncc1Cl [Example 333, (S)-2-(3-((cyclopropyl-methyl)amino)-3-methylazetidin-1-yl)-5-(5-(1-(3,5-dichloropyridin-4-yl)ethoxy)-6-methoxy-1H-indazol-3-yl)nicotinonitrile] | 6.00 to 6.70 | 1 to 50 nM | > 1000 nM | 50 to 300 nM | 300 to 1000 nM | 50 to 300 nM | – | – | –
10 | COc1cc2[nH]nc(-c3cnc(N4C[C@H](CS(C)(=O)=O)[C@H]4C)c(C#N)c3)c2cc1O[C@@H](C)c1c(Cl)cncc1Cl [Example 335, 5-(5-((S)-1-(3,5-dichloropyridin-4-yl)ethoxy)-6-methoxy-1H-indazol-3-yl)-2-((2R,3S)-2-methyl-3-((meth-ylsulfonyl)meth-yl)azetidin-1-yl)nicotinonitrile] | 6.00 to 6.70 | 1 to 50 nM | > 1000 nM | 300 to 1000 nM | > 1000 nM | 300 to 1000 nM | – | – | –

Results, then the molecule that gave them:

Row | pIC50 [1] | Kd (FGFR4) | Kd (FGFR2) | Kd (FGFR3) | Kd (FGFR1) | Kd (FGFR3 (V555M)) | pIC50 [2] | pIC50 [3] | pIC50 [4] | SMILES
11 | 6.70 to 7.30 | 1 to 50 nM | 50 to 300 nM | 1 to 50 nM | 50 to 300 nM | 1 to 50 nM | – | – | – | Cc1ncc(Cl)c([C@@H](C)Oc2ccc3[nH]nc(-c4cnc(N5CC(C)(N(C)C)C5)c(C#N)c4)c3c2)c1Cl [Example 45, 5-[5-[(1R)-1-(3,5-dichloro-2-methyl-4-pyridyl)ethoxy]-1H-indazol-3-yl]-2-[3-(dimethylamino)-3-methyl-azetidin-1-yl]pyridine-3-carbonitrile]
12 | 7.30 to 10.00 | 1 to 50 nM | 1 to 50 nM | 1 to 50 nM | 1 to 50 nM | 1 to 50 nM | – | – | – | COc1cc2[nH]nc(-c3cnc(N4CC5(CC5)C4)nc3)c2cc1O[C@H](C)c1c(Cl)cncc1Cl [Example 62, 3-[2-(5-azaspiro[2.3]hexan-5-yl)pyrimidin-5-yl]-5-[(1R)-1-(3,5-dichloro-4-pyridyl)ethoxy]-6-methoxy-1H-indazole]
13 | 7.30 to 10.00 | 1 to 50 nM | 1 to 50 nM | 1 to 50 nM | 1 to 50 nM | 1 to 50 nM | – | – | – | COc1cc2[nH]nc(-c3cnc(N4CC(C)(N5C[C@@H]6C[C@H]5CO6)C4)c(C#N)c3)c2cc1O[C@H](C)c1c(Cl)cncc1Cl [Example 336, -(3-((1S,4S)-2-oxa-5-aza-bicyclo[2.2.1]hep-tan-5-y1)-3-methylazetidin-1-yl)-5-(5-((R)-1-(3,5-dichloropyridin-4-yl)ethoxy)-6-methoxy-1H-indazol-3-yl)nicotinonitrile]
14 | 7.30 to 10.00 | 1 to 50 nM | 1 to 50 nM | – | 1 to 50 nM | – | 6.70 to 7.30 | 6.70 to 7.30 | 7.30 to 10.00 | COc1cc2[nH]nc(-c3cnc(N4CC(C)(NC(=O)CN(C)C)C4)c(C#N)c3)c2cc1O[C@H](C)c1c(Cl)cncc1Cl [Example 340, (R)-N-(1-(3-cyano-5-(5-(1-(3,5-dichloropyridin-4-yl)ethoxy)-6-methoxy-1H-indazol-3-yl)pyridin-2-yl)-3-methylazetidin-3-yl)-2-(dimethylamino)-acetamide]
